# Test results: patent US20100144626A1, “Treatment of Multi-Drug Resistant Bacterial Infections” (priority 2006, published 2010)
# Tests used:
# [1] = in vivo, cited from earlier work
# [2] = in vivo, cited from earlier work; remark: listed apart in the source
# MRSA = conditions: cited from earlier work
# [3] = tested on: clinical MRSA and VISA strains; test: MICs for clinical MRSA and VISA strains; format: cell-based; conditions: Staphylococcus aureus; range over strains; read-out: MICs for the clinical MRSA and VISA strains tested
# Method: In example experiments miconazole nitrate, was dissolved in methanol and econazole nitrate and clotrimazole were dissolved in DMSO and methanol respectively. Other solvents that may be used include caster oil, pyridine, DMSO and 0.9% saline. For IV administration agents may be solubilised in polyethoxylated caster oil, or cyclodextrins such as sulfobutylether7-βcyclodextrin or hydroxypropyl-β-cyclodextrin and lactic acid. Minimum inhibitory concentrations (MICs) of a range of clinical and control bacterial organisms were measured according to BSAC (British Society for Antimicrobial Chemotherapy) guidelines, described briefly as follows;
# Stock solutions were prepared at concentrations of 1000 mg/L and 100 mg/L. The appropriate amounts of each stock solution were added to separate Petri dishes give the following final concentrations (after the addition of 20 mL molten agar): 128, 64, 32, 16, 8, 4, 2, 1, 0.5, 0.25, 0.12, 0.06, 0.03, 0.015 mg/L.
# The test organisms were grown overnight in 5 mL IST broth. Using a dilution in 0.9% saline of 1:500 for Gram-negative organisms and 1:100 for Gram-positive organisms, the appropriate agar plates were inoculated using a multipoint inoculator. […]
# The MIC is the minimum amount of an antibiotic at which there is no visible growth of bacteria. Tiny single colonies or faint hazes were not counted as growth.
smiles,measurement,setting,value
"Clc1ccccc1C(c1ccccc1)(c1ccccc1)n1ccnc1 [Clotrimazole, 1-[(2-chlorophenyl)diphenylmethyl]-1H-imidazole]",administered dose detected in urine as active drug,[1]; po,Less than 1%
same,half-life,[1]; po,around 3 hours
same,absorption following oral administration,[1],well absorbed
Clc1ccc(COC(Cn2ccnc2)c2ccc(Cl)cc2Cl)cc1 (centres unmarked) [Econazole],tolerability of single oral dose,[2]; po,tolerated
same,number of metabolites,[2],more than 20
"Clc1ccc(COC(Cn2ccnc2)c2ccc(Cl)cc2Cl)c(Cl)c1 (centres unmarked) [Miconazole, 1-[2-(2,4-dichlorophenyl)-2-[(2,4-dichlorophenyl)methoxy]ethyl]-1H-imidazole]",anti-MRSA activity in presence of lipophilic a-tocopherol (vitamin E),MRSA; Lee et al. 1999,completely suppressed
same,minimum inhibitory concentration against MRSA,"MRSA; Lee et al., J. Microbiol. Biotechnol. 9 (1999), estimated",0.78 µg/mL
same,MIC,[3],0.25 to 2 µg/mL
